{
  "source": "patent US9290453B2",
  "about": "(Merck Sharp & Dohme Corp., priority 2010, dated 2016)",
  "note": "Where a name gives a salt, the structure may show the parent alone.",
  "data": [
    {"target": "T1, hCRTH2 (Homo sapiens, UniProt Q9Y5Y4)", "T1 construct": "expressed in transfected cells; host or cells: HEK (human embryonic kidney) cells expressing hCRTH2", "T1 sequence (Q9Y5Y4 1-395)": "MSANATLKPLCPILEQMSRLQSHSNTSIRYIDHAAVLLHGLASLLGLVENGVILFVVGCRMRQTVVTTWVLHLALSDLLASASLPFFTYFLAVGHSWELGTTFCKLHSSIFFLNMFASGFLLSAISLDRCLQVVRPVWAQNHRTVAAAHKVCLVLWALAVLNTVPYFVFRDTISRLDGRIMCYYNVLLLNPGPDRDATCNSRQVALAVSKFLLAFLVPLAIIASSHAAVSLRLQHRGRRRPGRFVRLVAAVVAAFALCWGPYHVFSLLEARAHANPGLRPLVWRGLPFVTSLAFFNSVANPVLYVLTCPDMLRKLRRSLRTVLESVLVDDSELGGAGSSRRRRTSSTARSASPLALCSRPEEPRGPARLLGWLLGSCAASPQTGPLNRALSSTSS", "experiment": "Radioligand Binding Assay A ([3H]PGD2 filtration binding, HEK-hCRTH2 membranes)", "details": "Table A, rated A-D", "method": "(§1) Radioligand binding assays were performed at room temperature in 50 mM Tris-HCl pH 7.4, 1 mM EDTA containing 2 mM MnCl2 and 3.0 nM [^3H]PGD2 (New England Nuclear, Boston, Mass.) (171 Ci mmol^−1), in a final volume of 0.2 ml. Competing ligands were diluted in dimethylsulfoxide (Me2SO) that was kept constant at 1% (v/v) of the final incubation volume. The reaction was initiated by the addition of 8-20 μg of membrane protein prepared from a human embryonic kidney (HEK)-hCRTH2 cell line. Total and non-specific binding were determined in the absence and the presence of 10 μM PGD2, respectively. Under these conditions, specific binding (total minus non-specific) of the radioligand to the receptor reached equilibrium within 50 min and was stable up to 180 min. The reaction was routinely conducted for 60 min at room temperature and terminated by rapid filtration through prewetted (0.3% polyethyleneimine) 96-well printed Filtermate™ (Wallac) using a Tomtec® harvester (Hamden, Conn.). After washing with cold buffer, the filter was dried for 2 minutes in microwave, and Meltilex Scintillator sheet (Wallac) was melted on for 2 min. The radioactivity was measured with Betaplate model 1205 (Wallac).", "units": {"Ki": "nM"}, "values": [
      {"smiles": "O=C(O)CCCCc1cc2cc(C(=O)N3CCC[C@@H](c4ccccc4)C3)ccc2nc1-c1ccccc1", "note": "[Compound 1K, 2-phenyl-6-[(3(S)-phenyl-1-piperidinyl)carbonyl]-3-quinolinepentanoic acid]", "Ki": "2.1 to 20"},
      {"smiles": "CC(NC(=O)c1ccc2nc(-c3ccccc3)c(CCCCC(=O)O)cc2c1)c1ccncc1", "note": "(stereo not shown) [Compound 1W, 2-phenyl-6-[[[1-(4-pyridinyl)ethyl]amino]carbonyl]-3-quinolinepentanoic acid]", "Ki": "20.1 to 200"},
      {"smiles": "C[C@H](NC(=O)c1ccc2nc(-c3ccccc3)c(CCCCC(=O)O)cc2c1)c1ccc(Cl)cc1", "note": "[Compound 1AE, 6-[[[1(S)-(4-chlorophenyl)ethyl]amino]carbonyl]-2-phenyl-3-quinolinepentanoic acid]", "Ki": "2.1 to 20"},
      {"smiles": "O=C(O)CCCCc1cc2cc(C(=O)N[C@H]3CCc4ccccc43)ccc2nc1-c1ccc(F)cc1", "note": "[Compound 5K, 6-[[(2,3-dihydro-1H-inden-1(S)-yl)amino]carbonyl]-2-(4-fluorophenyl)-3-quinolinepentanoic acid]", "Ki": "2.1 to 20"},
      {"smiles": "C[C@@H](NC(=O)c1ccc2nc(-c3ccc(F)cc3)c(CCCCC(=O)O)cc2c1)c1cc(Cl)cc(Cl)c1", "note": "[Compound 5X, 6-[[[1(R)-(3,5-dichlorophenyl)ethyl]amino]carbonyl]-2-(4-fluorophenyl)-3-quinolinepentanoic acid]", "Ki": "2.1 to 20"},
      {"smiles": "O=C(O)CCCCc1cc2cc(C(=O)N3CCC(c4ccccc4)CC3)ccc2nc1-c1ccccc1", "note": "[Compound 1R, 2-phenyl-6-[(4-phenyl-1-piperidinyl)carbonyl]-3-quinolinepentanoic acid]", "Ki": "0.1 to 2"},
      {"smiles": "O=C(O)CCCCc1cc2cc(C(=O)N[C@@H]3CCc4cc(Cl)ccc43)cnc2nc1-c1ccc(F)cc1", "note": "[Compound 6E, 6-[[(5-chloro-2,3-dihydro-1H-inden-1(R)-yl)amino]carbonyl]-2-(4-fluorophenyl)-1,8-naphthyridine-3-pentanoic acid]", "Ki": "2.1 to 20"},
      {"smiles": "C[C@H](CNC(=O)c1ccc2nc(-c3ccc(F)cc3)c(CCCCC(=O)O)cc2c1)c1ccccc1", "note": "[Compound 5AC, (S)-5-(2-(4-fluorophenyl)-6-((2-phenylpropyl)carbamoyl)quinolin-3-yl)pentanoic acid]", "Ki": "2.1 to 20"},
      {"smiles": "CN(Cc1cccc(C(F)(F)F)c1)C(=O)c1ccc2nc(-c3ccc(F)cc3)c(CCCCC(=O)O)cc2c1", "note": "[Compound 5W, 2-(4-fluorophenyl)-6-[[methyl[[3-(trifluoromethyl)phenyl]methyl]amino]carbonyl]-3-quinolinepentanoic acid]", "Ki": "20.1 to 200"},
      {"smiles": "O=C(O)CCCCc1cc2cc(C(=O)NCCCN3CCCC3)ccc2nc1-c1ccccc1", "note": "[Compound 1Z, 2-phenyl-6-[[[3-(1-pyrrolidinyl)propyl]amino]carbonyl]-3-quinolinepentanoic acid]", "Ki": "201 to 700"},
      {"smiles": "C[C@@H](NC(=O)c1ccc2nc(-c3ccc(F)cc3)c(CCCCC(=O)O)cc2c1)c1ccc(F)cc1", "note": "[Compound 5D, 2-(4-fluorophenyl)-6-[[[1(R)-(4-fluorophenyl)ethyl]amino]carbonyl]-3-quinolinepentanoic acid]", "Ki": "2.1 to 20"},
      {"smiles": "C[C@H](NC(=O)c1ccc2nc(-c3ccccc3)c(CCCCC(=O)O)cc2c1)c1ccccc1", "note": "[Compound 1T, 2-phenyl-6-[[(l(S)-phenylethyl)amino]carbonyl]-3-quinolinepentanoic acid]", "Ki": "2.1 to 20"},
      {"smiles": "O=C(O)CCCCc1cc2cc(C(=O)NCc3ccncc3)ccc2nc1-c1ccccc1", "note": "[Compound 1Y, 2-phenyl-6-[[(4-pyridinylmethyl)amino]carbonyl]-3-quinolinepentanoic acid]", "Ki": "20.1 to 200"},
      {"smiles": "O=C(O)CCCCc1cc2cc(C(=O)N[C@H]3CCc4ccccc43)ccc2nc1-c1ccccc1", "note": "[Compound 1N, 6-[[(2,3-dihydro-1H-inden-1(S)-yl)amino]carbonyl]-2-phenyl-3-quinolinepentanoic acid]", "Ki": "2.1 to 20"},
      {"smiles": "C[C@H](NC(=O)c1ccc2nc(-c3ccc(F)cc3)c(CCCCC(=O)O)cc2c1)c1cc(Cl)cc(Cl)c1", "note": "[Compound 5Y, 6-[[[1(S)-(3,5-dichlorophenyl)ethyl]amino]carbonyl]-2-(4-fluorophenyl)-3-quinolinepentanoic acid]", "Ki": "2.1 to 20"},
      {"smiles": "Cc1cccc(CNC(=O)c2ccc3nc(-c4ccccc4)c(CCCCC(=O)O)cc3c2)c1", "note": "[Compound 2A, 6-[[[(3-methylphenyl)methyl]amino]carbonyl]-2-phenyl-3-quinolinepentanoic acid]", "Ki": "2.1 to 20"},
      {"smiles": "O=C(O)CCCCc1cc2cc(C(=O)OCc3ccccc3)ccc2nc1-c1ccccc1", "note": "[Compound 2D, 2-phenyl-6-[(phenylmethoxy)carbonyl]-3-quinolinepentanoic acid]", "Ki": "0.1 to 2"},
      {"smiles": "O=C(O)CCCCc1cc2cc(C(=O)N[C@H]3CCCc4ccc(F)cc43)ccc2nc1-c1ccc(F)cc1", "note": "[Compound 5N, 2-(4-fluorophenyl)-6-[[(7-fluoro-1,2,3,4-tetrahydro-1(S)-naphthalenyl)amino]carbonyl]-3-quinolinepentanoic acid]", "Ki": "20.1 to 200"},
      {"smiles": "O=C(O)CCCCc1cc2cc(C(=O)NC3Cc4ccccc4C3)ccc2nc1-c1ccccc1", "note": "[Compound 1Q, 6-[[(2,3-dihydro-1H-inden-2-yl)amino]carbonyl]-2-phenyl-3-quinolinepentanoic acid]", "Ki": "2.1 to 20"},
      {"smiles": "C[C@H](NC(=O)c1ccc2nc(-c3ccc(F)cc3)c(CCCCC(=O)O)cc2c1)c1ccc(F)cc1", "note": "[Compound 5J, 2-(4-fluorophenyl)-6-[[[1(S)-(4-fluorophenyl)ethyl]amino]carbonyl]-3-quinolinepentanoic acid]", "Ki": "2.1 to 20"},
      {"smiles": "Cc1ccc(CNC(=O)c2ccc3nc(-c4ccccc4)c(CCCCC(=O)O)cc3c2)cc1", "note": "[Compound 1E, 6-[[[(4-methylphenyl)methyl]amino]carbonyl]-2-phenyl-3-quinolinepentanoic acid]", "Ki": "2.1 to 20"},
      {"smiles": "O=C(O)CCCCc1cc2cc(C(=O)N[C@@H](c3cc(Cl)cc(Cl)c3)C(F)(F)F)cnc2nc1-c1ccc(F)cc1", "note": "[Compound 6R, 6-[[[1(S)-(3,5-dichlorophenyl)-2,2,2-trifluoroethyl]amino]carbonyl]-2-(4-fluorophenyl)-1,8-naphthyridine-3-pentanoic acid]", "Ki": "2.1 to 20"},
      {"smiles": "O=C(O)CCCCc1cc2cc(C(=O)N3CCC[C@H](c4ccccc4)C3)ccc2nc1-c1ccccc1", "note": "[Compound 1L, 2-phenyl-6-[(3(R)-phenyl-1-piperidinyl)carbonyl]-3-quinolinepentanoic acid]", "Ki": "2.1 to 20"},
      {"smiles": "O=C(O)CCCCc1cc2cc(C(=O)N[C@@H]3CCc4ccccc43)ccc2nc1-c1ccc(F)cc1", "note": "[Compound 5E, 6-[[(2,3-dihydro-1H-inden-1(R)-yl)amino]carbonyl]-2-(4-fluorophenyl)-3-quinolinepentanoic acid]", "Ki": "2.1 to 20"},
      {"smiles": "O=C(O)CCCCc1cc2cc(C(=O)N[C@H]3CCCc4cc(Cl)ccc43)ccc2nc1-c1ccc(F)cc1", "note": "[Compound 5S, 6-[[(6-chloro-1,2,3,4-tetrahydro-1(S)-naphthalenyl)amino]carbonyl]-2-(4-fluorophenyl)-3-quinolinepentanoic acid]", "Ki": "2.1 to 20"},
      {"smiles": "C[C@@H](NC(=O)c1cnc2nc(-c3ccc(F)cc3)c(CCCCC(=O)O)cc2c1)c1ccc(F)cc1", "note": "[Compound 6D, 2-(4-fluorophenyl)-6-[[[1(R)-(4-fluorophenyl)ethyl]amino]carbonyl]-1,8-naphthyridine-3-pentanoic acid]", "Ki": "20.1 to 200"},
      {"smiles": "C[C@H](NC(=O)c1cnc2nc(-c3ccc(F)cc3)c(CCCCC(=O)O)cc2c1)c1ccc(Cl)cc1", "note": "[Compound 6J, 6-[[[1(S)-(4-chlorophenyl)ethyl]amino]carbonyl]-2-(4-fluorophenyl)-1,8-naphthyridine-3-pentanoic acid]", "Ki": "20.1 to 200"},
      {"smiles": "C[C@@H](NC(=O)c1ccc2nc(-c3ccc(F)cc3)c(CCCCC(=O)O)cc2c1)c1ccc(Cl)cc1", "note": "[Compound 5, 6-[[[1(R)-(4-chlorophenyl)ethyl]amino]carbonyl]-2-(4-fluorophenyl)-3-quinolinepentanoic acid]", "Ki": "2.1 to 20"},
      {"smiles": "O=C(O)CCCCc1cc2cc(C(=O)NCc3ccc(F)cc3)ccc2nc1-c1ccccc1", "note": "[Compound 2C, 6-[[[(4-fluorophenyl)methyl]amino]carbonyl]-2-phenyl-3-quinolinepentanoic acid]", "Ki": "2.1 to 20"},
      {"smiles": "O=C(O)CCCCc1cc2cc(C(=O)NCc3ccc(OC(F)(F)F)cc3)ccc2nc1-c1ccccc1", "note": "[Compound 1, 5-(2-phenyl-6-(4-(trifluoromethoxy)benzylcarbamoyl)quinolin-3-yl)pentanoic acid trifluoroacetate]", "Ki": "2.1 to 20"},
      {"smiles": "O=C(O)CCCCc1cc2cc(C(=O)N[C@@H]3CCCc4cc(Cl)ccc43)cnc2nc1-c1ccc(F)cc1", "note": "[Compound 6G, 6-[[(6-chloro-1,2,3,4-tetrahydro-1(R)-naphthalenyl)amino)carbonyl]-2-(4-fluorophenyl)-1,8-naphthyridine-3-pentanoic acid]", "Ki": "2.1 to 20"}
    ]},
    {"target": "T1, hCRTH2", "experiment": "Radioligand Binding Assay A ([3H]PGD2 filtration binding, HEK-hCRTH2 membranes)", "details": "values in text", "method": "as §1", "units": {"Ki": "nM"}, "values": [
      {"smiles": "C[C@@H](NC(=O)c1ccc2nc(-c3ccc(F)cc3)c(CCCCC(=O)O)cc2c1)c1cc(Cl)cc(Cl)c1", "note": "[Compound 5X, 6-[[[1(R)-(3,5-dichlorophenyl)ethyl]amino]carbonyl]-2-(4-fluorophenyl)-3-quinolinepentanoic acid]", "Ki": 5.4},
      {"smiles": "O=C(O)CCCCc1cc2cc(C(=O)N3CCC(c4ccccc4)CC3)ccc2nc1-c1ccccc1", "note": "[Compound 1R, 2-phenyl-6-[(4-phenyl-1-piperidinyl)carbonyl]-3-quinolinepentanoic acid]", "Ki": 1.8},
      {"smiles": "O=C(O)CCCCc1cc2cc(C(=O)NCCCN3CCCC3)ccc2nc1-c1ccccc1", "note": "[Compound 1Z, 2-phenyl-6-[[[3-(1-pyrrolidinyl)propyl]amino]carbonyl]-3-quinolinepentanoic acid]", "Ki": 570},
      {"smiles": "O=C(O)CCCCc1cc2cc(C(=O)N[C@H]3CCCc4ccc(F)cc43)ccc2nc1-c1ccc(F)cc1", "note": "[Compound 5N, 2-(4-fluorophenyl)-6-[[(7-fluoro-1,2,3,4-tetrahydro-1(S)-naphthalenyl)amino]carbonyl]-3-quinolinepentanoic acid]", "Ki": 25.5},
      {"smiles": "Cc1ccc(CNC(=O)c2ccc3nc(-c4ccccc4)c(CCCCC(=O)O)cc3c2)cc1", "note": "[Compound 1E, 6-[[[(4-methylphenyl)methyl]amino]carbonyl]-2-phenyl-3-quinolinepentanoic acid]", "Ki": 4.4},
      {"smiles": "O=C(O)CCCCc1cc2cc(C(=O)N[C@@H]3CCCc4cc(Cl)ccc43)cnc2nc1-c1ccc(F)cc1", "note": "[Compound 6G, 6-[[(6-chloro-1,2,3,4-tetrahydro-1(R)-naphthalenyl)amino)carbonyl]-2-(4-fluorophenyl)-1,8-naphthyridine-3-pentanoic acid]", "Ki": 6.3}
    ]}
  ]
}
